Experimental data: ChEMBL document CHEMBL1126639, “Centrally acting serotonergic and dopaminergic agents. 2. Synthesis and structure-activity relationships of 2,3,3a,4,9,9a-hexahydro-1H-benz[f]indole derivatives” (J Med Chem, 1993)

Columns and labels:
Mus musculus [1] = test: Ability to stimulate dopaminergic systems by effect on locomotor activity in reserpinized mice when a dose of 3.2 micro mol/kg is administered intraperitoneally; format: functional
Mus musculus [2] = test: Antagonism of apomorphine in reserpinized mice when a dose of 32 micro mol/kg is administered intraperitoneally; format: functional
Mus musculus [3] = test: Antagonism of apomorphine for 0-10 minutes in reserpinized mice when a dose of 3.2 micro mol/kg is administered intraperitoneally; format: functional
Mus musculus [4] = test: Antagonism of apomorphine in reserpinized mice when a dose of 0.03 micro mol/kg is administered intraperitoneally; format: functional
Mus musculus [5] = test: Antagonism of apomorphine for 0-10 minutes in reserpinized mice when a dose of 32 micro mol/kg is administered intraperitoneally; format: functional
Mus musculus [6] = test: Antagonism of apomorphine for 10-20 minutes in reserpinized mice when a dose of 32 micro mol/kg is administered intraperitoneally; format: functional
Mus musculus [7] = test: Antagonism of apomorphine for 0-10 minutes in reserpinized mice when a dose of 0.03 micro mol/kg is administered intraperitoneally; format: functional
Mus musculus [8] = test: Ability to stimulate dopaminergic systems by effect on locomotor activity in reserpinized mice when a dose of 32 micro mol/kg is administered intraperitoneally; format: functional
Mus musculus [9] = test: Ability to stimulate dopaminergic systems by effect on locomotor activity in reserpinized mice when a dose of 0.3 micro mol/kg is administered intraperitoneally; format: functional
Mus musculus [10] = test: Ability to stimulate dopaminergic systems by effect on locomotor activity in reserpinized mice when a dose of 0.03 micro mol/kg is administered intraperitoneally; format: functional
Mus musculus [11] = test: Antagonism of apomorphine for 10-20 minutes in reserpinized mice when a dose of 3.2 micro mol/kg is administered intraperitoneally; format: functional
Rattus norvegicus [12] = test: Effect on the synthesis rates of dopamine in the rat ventral limbic brain region at 3.2 micro mol/kg; format: functional, Limbic system
Mus musculus [13] = test: Antagonism of apomorphine for 10-20 minutes in reserpinized mice when a dose of 0.03 micro mol/kg is administered intraperitoneally; format: functional
Mus musculus [14] = test: Antagonism of apomorphine in reserpinized mice when a dose of 3.2 micro mol/kg is administered intraperitoneally; format: functional
Mus musculus [15] = test: Antagonism of apomorphine in reserpinized mice when a dose of 0.3 micro mol/kg is administered intraperitoneally; format: functional
Mus musculus [16] = test: Antagonism of apomorphine for 0-10 minutes in reserpinized mice when a dose of 0.3 micro mol/kg is administered intraperitoneally; format: functional
Rattus norvegicus [17] = test: Inhibition of firing rates of dopaminergic neurons in the substantia nigra pars compacta by intravenous injection in rats.; format: functional
Mus musculus [18] = test: Antagonism of apomorphine for 10-20 minutes in reserpinized mice when a dose of 0.3 micro mol/kg is administered intraperitoneally; format: functional
Rattus norvegicus [19] = test: Effect on the synthesis rates of serotonin in the rat ventral limbic brain region 3.2 micro mol/kg. Values are given as percent change from the control; format: functional, Limbic system
Mus musculus [20] = test: Antagonism of apomorphine in reserpinized mice when a dose of 3.7 micro mol/kg is administered intraperitoneally; format: functional
Rattus norvegicus [21] = test: Inhibition of firing rates of dopaminergic neurons in the substantia nigra pars compacta by intravenous injection in rats; format: functional
Rattus norvegicus [22] = test: Effect on the synthesis rates of dopamine (DOPA accumulation) in the rat ventral limbic brain region at 3.7 uM/kg.; format: functional, Limbic system
Mus musculus [23] = test: Ability to stimulate dopaminergic systems by effect on locomotor activity in reserpinized mice when a dose of 3.7 micro mol/kg is administered intraperitoneally; format: functional
Mus musculus [24] = test: Ability to stimulate dopaminergic systems by effect on locomotor activity in reserpinized mice when a dose of 37 micro mol/kg is administered intraperitoneally; format: functional
Rattus norvegicus [25] = organism: Rattus norvegicus; test: Effect on the synthesis rates of serotonin (5-HTP accumulation) in the rat ventral limbic brain region […].; format: functional, Limbic system
Mus musculus [26] = test: Antagonism of apomorphine for 10-20 minutes in reserpinized mice when a dose of 37 micro mol/kg is administered intraperitoneally; format: functional
D(2) dopamine receptor [27] = biological target: T1, D(2) dopamine receptor (Homo sapiens, UniProt P14416); test: Binding affinity against [3H]U-86,170-labeled dopamine receptor D2 in cloned CHO cells; format: cell-based
Mus musculus [28] = test: Antagonism of apomorphine for 0-10 minutes in reserpinized mice when a dose of 37 micro mol/kg is administered intraperitoneally; format: functional
Mus musculus [29] = test: Antagonism of apomorphine for 10-20 minutes in reserpinized mice when a dose of 3.7 micro mol/kg is administered intraperitoneally; format: functional
Mus musculus [30] = test: Antagonism of apomorphine for 0-10 minutes in reserpinized mice when a dose of 0.4 micro mol/kg is administered intraperitoneally; format: functional
Mus musculus [31] = test: Antagonism of apomorphine for 0-10 minutes in reserpinized mice when a dose of 3.7 micro mol/kg is administered intraperitoneally; format: functional
Mus musculus [32] = test: Antagonism of apomorphine in reserpinized mice when a dose of 37 micro mol/kg is administered intraperitoneally; format: functional
Mus musculus [33] = test: Ability to stimulate dopaminergic systems by effect on locomotor activity in reserpinized mice when a dose of 0.4 micro mol/kg is administered intraperitoneally; format: functional
D(2) dopamine receptor [34] = biological target: D(2) dopamine receptor (Rattus norvegicus, UniProt P61169); test: Binding affinity for [3H]raclopride-labeled dopamine receptor D2 in rat striatum; format: tissue-based
Mus musculus [35] = test: Antagonism of apomorphine in reserpinized mice when a dose of 0.4 micro mol/kg is administered intraperitoneally; format: functional
Mus musculus [36] = test: Antagonism of apomorphine for 10-20 minutes in reserpinized mice when a dose of 0.4 micro mol/kg is administered intraperitoneally; format: functional
D(2) dopamine receptor [37] = biological target: T1, D(2) dopamine receptor; test: Intrinsic activity from GTP shift using CHO cell membranes expressing dopamine receptor D2; format: functional
Mus musculus [38] = test: Time of effect in the isolation-induced aggression behavioral assay in the mouse when a dose of 0.0 micro mol/kg is administered perorally; format: functional
Mus musculus [39] = test: Time of effect in the isolation-induced aggression behavioral assay in the mouse when a dose of 36 micro mol/kg is administered perorally; format: functional
Mus musculus [40] = test: Time of effect in the face-to-face behavioral assay in the mouse when a dose of 0.4 micro mol/kg is administered subcutaneously; format: functional
Mus musculus [41] = test: Time of effect in the isolation-induced aggression behavioral assay in the mouse when a dose of 0.0 micro mol/kg is administered intraperitoneally; format: functional
Rattus norvegicus [42] = test: Effect on the synthesis rates of serotonin in the rat ventral limbic brain region 10.7 micro mol/kg.; format: functional, Limbic system
Mus musculus [43] = test: Effective dose on hypothermia in mouse when administered subcutaneously; format: functional
Mus musculus [44] = test: Time of effect in the isolation-induced aggression behavioral assay in the mouse when a dose of 0.4 micro mol/kg is administered intraperitoneally; format: functional
Mus musculus [45] = test: Time of effect in the face-to-face behavioral assay in the mouse when a dose of 3.6 micro mol/kg is administered subcutaneously; format: functional
Mus musculus [46] = test: Time of effect in the isolation-induced aggression behavioral assay in the mouse when a dose of 3.6 micro mol/kg is administered perorally; format: functional
Mus musculus [47] = test: Maximum decrease in temperature when compound is administered through peroral route; format: functional
Mus musculus [48] = test: Time of effect in the isolation-induced aggression behavioral assay in the mouse when a dose of 36 micro mol/kg is administered intraperitoneally (*,p<0.05); format: functional
Rattus norvegicus [49] = test: Inhibition of firing rates of serotonergic neurons in the dorsal raphe nucleus by intravenous injection in rats; format: functional; conditions: Rattus norvegicus, Dorsal raphe nucleus, iv; read-out: ED50
Mus musculus [50] = test: Maximum decrease in temperature when compound is administered subcutaneously; format: functional
Mus musculus [51] = test: Time of effect in the isolation-induced aggression behavioral assay in the mouse when a dose of 3.6 micro mol/kg is administered intraperitoneally (*,p<0.05); format: functional
Mus musculus [52] = test: Time of effect in the face-to-face behavioral assay in the mouse when a dose of 36 micro mol/kg is administered subcutaneously; format: functional
Mus musculus [53] = organism: Mus musculus; test: Time of effect in the face-to-face behavioral assay in the mouse […]; format: functional
Rattus norvegicus [54] = test: Effect on the synthesis rates of dopamine (DOPA accumulation) in the rat ventral limbic brain region at 10.7 micro mol/kg.; format: functional, Limbic system
Mus musculus [55] = test: Effective dose on hypothermia in mouse when administered through peroral route; format: functional
Felis catus [56] = test: Maximum decrease of sympathetic nerve activity (SND) in anesthetized cat; format: functional; design: scale not given: the % may be the effect or the level left
Felis catus [57] = test: Maximum decrease of arterial blood pressure at sympathetic nerve activity (SND) in anesthetized cat has been observed following 1 mg/kg dose; format: functional; design: scale not given: the % may be the effect or the level left
Mus musculus [58] = test: Time of effect in the isolation-induced aggression behavioral assay in the mouse when a dose of 11 micro mol/kg is administered perorally; format: functional

T1 sequence (P14416 whole entry): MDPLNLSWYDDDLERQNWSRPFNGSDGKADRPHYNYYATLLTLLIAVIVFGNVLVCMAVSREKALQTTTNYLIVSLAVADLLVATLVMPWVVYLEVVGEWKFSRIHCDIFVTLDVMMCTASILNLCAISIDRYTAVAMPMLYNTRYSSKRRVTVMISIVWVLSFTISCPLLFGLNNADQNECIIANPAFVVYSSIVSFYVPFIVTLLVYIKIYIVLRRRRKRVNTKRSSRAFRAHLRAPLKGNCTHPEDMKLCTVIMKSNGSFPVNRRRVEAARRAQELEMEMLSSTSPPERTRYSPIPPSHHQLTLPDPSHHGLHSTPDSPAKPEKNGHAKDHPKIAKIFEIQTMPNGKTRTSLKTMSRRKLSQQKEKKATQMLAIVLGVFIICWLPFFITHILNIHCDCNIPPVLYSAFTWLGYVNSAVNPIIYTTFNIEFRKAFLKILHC
Chain of D(2) dopamine receptor (Rattus norvegicus, UniProt P61169) (P61169 whole entry): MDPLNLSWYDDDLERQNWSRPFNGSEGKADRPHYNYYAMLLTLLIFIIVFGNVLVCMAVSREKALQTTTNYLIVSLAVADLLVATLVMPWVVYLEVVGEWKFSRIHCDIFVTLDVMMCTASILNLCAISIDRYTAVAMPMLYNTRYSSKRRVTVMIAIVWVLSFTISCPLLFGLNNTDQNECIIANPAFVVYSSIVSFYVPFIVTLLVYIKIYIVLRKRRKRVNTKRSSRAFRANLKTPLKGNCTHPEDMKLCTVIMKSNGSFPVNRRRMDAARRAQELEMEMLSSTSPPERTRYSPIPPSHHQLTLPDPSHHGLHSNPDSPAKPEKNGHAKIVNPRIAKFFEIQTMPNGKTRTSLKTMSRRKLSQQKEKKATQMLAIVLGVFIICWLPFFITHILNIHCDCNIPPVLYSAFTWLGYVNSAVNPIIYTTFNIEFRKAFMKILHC

## CN1CCc2cccc3c2[C@H]1Cc1ccc(O)c(O)c1-3 [APOMORPHINE]
Mus musculus [1]
  Locomotor activity: 1777
Mus musculus [2]
  Locomotor activity: 113
Mus musculus [3]
  Locomotor activity: 52
Mus musculus [4]
  Locomotor activity: 119
Mus musculus [5]
  Locomotor activity: 69
Mus musculus [6]
  Locomotor activity: 66
Mus musculus [7]
  Locomotor activity: 78
Mus musculus [8]
  Locomotor activity: 1184
Mus musculus [9]
  Locomotor activity: 150
Mus musculus [10]
  Locomotor activity: 22
Mus musculus [11]
  Locomotor activity: 42
Rattus norvegicus [12]
  Control: -55%
Mus musculus [13]
  Locomotor activity: 86
Mus musculus [14]
  Locomotor activity: 139
Mus musculus [15]
  Locomotor activity: 135
Mus musculus [16]
  Locomotor activity: 73
Rattus norvegicus [17]
  ED50: 0.031 µmol/kg
Mus musculus [18]
  Locomotor activity: 96
Rattus norvegicus [19]
  Control: 17%

## CCCN1CC[C@H]2Cc3c(O)cccc3C[C@@H]21
Mus musculus [20]
  Locomotor activity: 86
Rattus norvegicus [21]
  ED50: > 3.73 µmol/kg
Rattus norvegicus [22]
  Control: 20%
Mus musculus [23]
  Locomotor activity: 1
Mus musculus [24]
  Locomotor activity: 113
Rattus norvegicus [25]
  Control: 12%
Mus musculus [26]
  Locomotor activity: 103
D(2) dopamine receptor [27]
  Ki: 917 nM
Mus musculus [28]
  Locomotor activity: 84
Mus musculus [29]
  Locomotor activity: 119
Mus musculus [30]
  Locomotor activity: 121
Mus musculus [31]
  Locomotor activity: 109
Mus musculus [32]
  Locomotor activity: 77
Mus musculus [33]
  Locomotor activity: 45
D(2) dopamine receptor [34]
  Ki: > 630 nM
Mus musculus [35]
  Locomotor activity: 81
Rattus norvegicus [17]
  ED50: > 3.73 µmol/kg
Mus musculus [36]
  Locomotor activity: 119
D(2) dopamine receptor [37]
  Intrinsic activity: 18%

## C=CCN1CC[C@@H]2Cc3c(cccc3OC)C[C@H]21 (racemic)
Mus musculus [38]
  Time: 73 s
Mus musculus [39]
  Time: 393 s
Mus musculus [40]
  Time: 1.5 s
Mus musculus [41]
  Time: 3 s
Rattus norvegicus [42]
  Control: -39
Mus musculus [43]
  ED50: 2.6 µM/kg
Mus musculus [44]
  Time: 3 s
Mus musculus [45]
  Time: 3.6 s
Mus musculus [46]
  Time: 88 s
Mus musculus [47]
  Max temperature decrease: 9.9
Mus musculus [48]
  Time: 522 s
Rattus norvegicus [49]
  ED50: 0.14 µmol/kg
Mus musculus [50]
  Max temperature decrease: 7.8
Mus musculus [51]
  Time: 147 s
Mus musculus [52]
  Time: 6.9 s
Mus musculus [53]
  Time: 0.9 s
Rattus norvegicus [54]
  Control: -26
D(2) dopamine receptor [34]
  Ki: > 1000 nM
Mus musculus [55]
  ED50: 4.6 µM/kg
Felis catus [56]
  Control: 78%
Felis catus [57]
  Control: 63%
Mus musculus [58]
  Time: 218 s
